Source: PMC9457746, “Synthesis of Sulfonamides Incorporating Piperidinyl-Hydrazidoureido and Piperidinyl-Hydrazidothioureido Moieties and Their Carbonic Anhydrase I, II, IX and XII Inhibitory Activity” (Molecules, 2022)
Where two headings read alike, the source gives them in different places.

Columns and labels:
[1] = target: hCA I (Homo sapiens, UniProt P00915); assay: stopped flow CO2 hydrase assay, hCA I inhibition
Experimental: (§1) An Applied Photophysics stopped-flow instrument has been used for assaying the CA catalyzed CO2 hydration activity using the Khalifah procedure [23]. The used indicator was phenol red (0.2 mM), the absorbance maximum was of 557 nm, and the buffer was 20 mM Hepes (pH 7.5), whereas 20 mM Na2SO4 were employed for maintaining the ionic strength constant. […] Uncatalyzed rates were subtracted from the observed total rates. […] Inhibitor and enzyme solutions were preincubated together for 15 min, for assuring the formation of the E–I complex. The inhibition constants were obtained by non-linear least squares using the Cheng–Prusoff equation, as reported earlier [24, 25, 26] and represent the mean from at least three different determinations.

[2] = target: hCA II (Homo sapiens, UniProt P00918); assay: stopped flow CO2 hydrase assay, hCA II inhibition
Experimental: as §1

[3] = target: hCA IX (Homo sapiens, UniProt Q16790); assay: stopped flow CO2 hydrase assay, hCA IX inhibition
Experimental: as §1

[4] = target: hCA XII (Homo sapiens, UniProt O43570); assay: stopped flow CO2 hydrase assay, hCA XII inhibition
Chain of hCA XII (O43570 25-354): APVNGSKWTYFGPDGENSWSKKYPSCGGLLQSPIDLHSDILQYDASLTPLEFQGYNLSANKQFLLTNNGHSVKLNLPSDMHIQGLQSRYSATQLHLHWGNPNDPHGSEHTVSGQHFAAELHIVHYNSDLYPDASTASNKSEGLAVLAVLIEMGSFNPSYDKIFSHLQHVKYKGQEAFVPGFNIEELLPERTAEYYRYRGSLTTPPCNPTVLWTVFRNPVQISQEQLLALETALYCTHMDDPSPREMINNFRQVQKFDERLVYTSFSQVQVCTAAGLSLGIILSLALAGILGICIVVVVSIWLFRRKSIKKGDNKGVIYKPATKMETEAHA
Experimental: as §1

[5] = read-out: Ki (nM) hCAI, Table 2, thioureas 6a-y, recombinant enzyme, 15 min preincubation, mean of at least three determinations
[6] = read-out: Ki (nM) hCAII, Table 2, thioureas 6a-y, recombinant enzyme, 15 min preincubation, mean of at least three determinations
[7] = read-out: Ki (nM) hCAIX, Table 2, thioureas 6a-y, recombinant enzyme, 15 min preincubation, mean of at least three determinations
[8] = read-out: Ki (nM) hCAXII, Table 2, thioureas 6a-y, recombinant enzyme, 15 min preincubation, mean of at least three determinations

Chain of hCA I (P00915 whole entry): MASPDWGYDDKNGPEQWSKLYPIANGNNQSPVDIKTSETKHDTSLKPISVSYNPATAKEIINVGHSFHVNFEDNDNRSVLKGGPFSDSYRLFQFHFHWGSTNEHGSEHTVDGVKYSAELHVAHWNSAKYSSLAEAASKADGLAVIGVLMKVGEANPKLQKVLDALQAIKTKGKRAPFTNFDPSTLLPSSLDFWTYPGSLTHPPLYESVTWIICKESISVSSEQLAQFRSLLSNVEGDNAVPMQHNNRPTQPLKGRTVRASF

Compound: 2-(1-(3-sulfamoylbenzoyl)piperidine-4-carbonyl)-N-(p-tolyl)hydrazine-1-carbothioamide [Compound 6s]
- Ki [1, 5]: 56.5 nM
- Ki [2, 6]: 4.3 nM
- increase in hCA II activity as compared to the 2-methyl analog ([2]; versus 6r): about 8 fold
- Ki [3, 7]: 9.3 nM
- Ki [4, 8]: 2.6 nM
- increase in hCA XII activity as compared to the 2-methyl analog ([4]; versus 6r): about 8 fold

Compound: 2-(1-(3-sulfamoylbenzoyl)piperidine-4-carbonyl)-N-(p-tolyl)hydrazine-1-carbothioamide [Compound 6t]
- Ki [1, 5]: 613 nM
- Ki [2, 6]: 58 nM
- Ki [3, 7]: 28.4 nM
- Ki [4, 8]: 31 nM

Compound: 4-(4-(4-(4-(Trifluoromethyl)phenyl)piperazine-1-carbonyl)piperidine-1-carbonyl)benzenesulfonamide [Compound 6c]
- Ki [3, 7]: 7.2 nM
- Ki [4, 8]: 4.5 nM

Compound: NS(=O)(=O)c1ccc(C(=O)N2CCC(C(=O)NNC(=O)Nc3ccccc3)CC2)cc1 [Compound 5a]
- Ki [1]: 93.3 nM
- Ki [2]: 29.3 nM
- Ki [3]: 16.5 nM
- Ki [4]: 22.8 nM

Compound: NS(=O)(=O)c1ccc(C(=O)N2CCC(C(=O)NNC(=O)Nc3ccccc3Cl)CC2)cc1 [Compound 5b, N-(2-Chlorophenyl)-2-(1-(4-sulfamoylbenzoyl)piperidine-4-carbonyl)hydrazinecarboxamide]
- melting point: 214 to 215 °C
- Ki [1]: 164 nM
- Ki [2]: 15.3 nM
- Ki [3]: 25.1 nM
- Ki [4]: 13.6 nM

Compound: NS(=O)(=O)c1ccc(C(=O)N2CCC(C(=O)NNC(=O)Nc3cccc(Cl)c3)CC2)cc1 [Compound 5c]
- Ki [1]: 218 nM
- Ki [2]: 5.1 nM
- Ki [3]: 37.8 nM
- Ki [4]: 44.6 nM

Compound: NS(=O)(=O)c1ccc(C(=O)N2CCC(C(=O)NNC(=O)Nc3ccc(Cl)cc3)CC2)cc1 [Compound 5d, N-(4-Chlorophenyl)-2-(1-(4-sulfamoylbenzoyl)piperidine-4-carbonyl)hydrazinecarboxamide]
- melting point: 209 to 210 °C
- Ki [1]: 447 nM
- Ki [2]: 109 nM
- Ki [3]: 93.7 nM
- Ki [4]: 101 nM

Compound: NS(=O)(=O)c1ccc(C(=O)N2CCC(C(=O)NNC(=O)Nc3c(Cl)cccc3Cl)CC2)cc1 [Compound 5e]
- Ki [1]: 259 nM
- Ki [2]: 68.8 nM
- Ki [3]: 28.9 nM
- Ki [4]: 16.4 nM

Compound: NS(=O)(=O)c1ccc(C(=O)N2CCC(C(=O)NNC(=O)Nc3ccc(F)cc3)CC2)cc1 [Compound 5h]
- Ki [1]: 60.6 nM
- Ki [2]: 12.1 nM
- Ki [3]: 2.1 nM
- Ki [4]: 24 nM

Compound: Cc1ccc(NC(=O)NNC(=O)C2CCN(C(=O)c3ccc(S(N)(=O)=O)cc3)CC2)cc1 [Compound 5l]
- Ki [1]: 81.7 nM
- Ki [2]: 22 nM
- Ki [3]: 8.1 nM
- Ki [4]: 36.7 nM

Compound: COc1ccc(NC(=O)NNC(=O)C2CCN(C(=O)c3ccc(S(N)(=O)=O)cc3)CC2)c(OC)c1 [Compound 5r]
- Ki [1]: 322 nM
- Ki [2]: 19.8 nM
- Ki [3]: 23.2 nM
- Ki [4]: 15.6 nM

Compound: NS(=O)(=O)c1ccc(C(=O)N2CCC(C(=O)NNC(=O)NCc3ccccc3)CC2)cc1 [Compound 5t]
- Ki [1]: 77.8 nM
- Ki [2]: 48.2 nM
- Ki [3]: 40 nM
- Ki [4]: 20.1 nM

Compound: COc1ccc(CNC(=O)NNC(=O)C2CCN(C(=O)c3ccc(S(N)(=O)=O)cc3)CC2)cc1 [Compound 5u]
- Ki [1]: 130 nM
- Ki [2]: 40.7 nM
- Ki [3]: 45.3 nM
- Ki [4]: 6.4 nM
- selectivity for hCAXII compared with hCAII and hCAIX ([4]; hCA XII versus hCA II and hCA IX): about 6 fold

Compound: NS(=O)(=O)c1ccc(C(=O)N2CCC(C(=O)NNC(=S)Nc3cccc(F)c3)CC2)cc1 [Compound 6o, N-(3-Fluorophenyl)-2-(1-(4-sulfamoylbenzoyl)piperidine-4-carbonyl)hydrazinecarbothioamide]
- Ki [1]: 590 nM
- Ki [2]: 102 nM
- Ki [3, 7]: 5.6 nM

Compound: N-(1-Phenylethyl)-2-(1-(4-sulfamoylbenzoyl)piperidine-4-carbonyl)hydrazinecarbothioamide [Compound 6x]
- Ki [1, 5]: 76.6 nM
- Ki [2, 6]: 7.6 nM
- Ki [3, 7]: 2.9 nM
- Ki [4, 8]: 10.4 nM
